Earlier results in patent US5591891A, “N-[Mercaptoacyl (amino acid or peptide ) ] compounds and S-lipophiIic aliphatic carbonyl derivatives thereof as antihypertensives” (Institut National de la Sante et de la Recherche Medicale …, priority 1994, dated 1997).

Biological target: T1, NEP (Rattus norvegicus, UniProt P07861)
T1 construct: thereby aids in reducing blood pressure in the rat; host or cells: rat, in vivo
T1 sequence (P07861 1-750): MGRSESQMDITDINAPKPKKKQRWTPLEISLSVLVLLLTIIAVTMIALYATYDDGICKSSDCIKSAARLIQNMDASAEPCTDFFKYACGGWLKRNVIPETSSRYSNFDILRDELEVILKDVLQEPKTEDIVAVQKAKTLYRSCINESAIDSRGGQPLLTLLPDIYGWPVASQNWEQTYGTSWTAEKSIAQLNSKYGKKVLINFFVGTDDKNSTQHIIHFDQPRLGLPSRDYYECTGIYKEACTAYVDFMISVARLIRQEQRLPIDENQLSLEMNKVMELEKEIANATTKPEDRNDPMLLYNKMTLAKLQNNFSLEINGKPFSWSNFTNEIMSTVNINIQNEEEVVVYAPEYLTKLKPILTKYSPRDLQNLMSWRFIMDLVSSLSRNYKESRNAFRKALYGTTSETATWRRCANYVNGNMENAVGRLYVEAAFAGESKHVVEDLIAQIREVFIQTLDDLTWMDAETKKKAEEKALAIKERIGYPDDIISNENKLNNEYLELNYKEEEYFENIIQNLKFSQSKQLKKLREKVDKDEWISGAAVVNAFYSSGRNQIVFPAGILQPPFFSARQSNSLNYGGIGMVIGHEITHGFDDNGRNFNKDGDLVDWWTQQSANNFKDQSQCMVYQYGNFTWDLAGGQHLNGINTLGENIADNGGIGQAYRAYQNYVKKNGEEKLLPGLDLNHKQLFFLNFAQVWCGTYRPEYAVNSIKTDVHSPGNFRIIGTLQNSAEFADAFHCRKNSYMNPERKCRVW
Conditions: aids in reducing blood pressure; cited from earlier work

## O=C(O)CNC(=O)C(CS)Cc1ccccc1 (racemic) [Thiorphan, N-(2-mercapto-methyl-3-phenyl-1-oxopropyl)glycine]
  half-life of circulating auricular natriuretic peptide: capable of augmenting the half-life of circulating auricular natriuretic peptide
